Earlier results as cited in patent US20070231388A1, “Novel Pharmaceutical Dosage Form and Manufacturing Process” (Atlana Pharma AG, priority 2004, published 2007).

Conditions: in comparison to pantoprazole itself or to pantoprazole sodium sesquihydrate

stability properties: improved stability properties
Compound: COc1ccnc(C[S+]([O-])c2nc3cc(OC(F)F)ccc3[n-]2)c1OC.COc1ccnc(C[S+]([O-])c2nc3cc(OC(F)F)ccc3[n-]2)c1OC.O.O.[Mg+2] (stereo not shown) [Magnesium bis[5-[difluoromethoxy]-2-[[3,4-dimethoxy-2-pyridinyl]-methyl]sulfinyl]-1H-benzimidazolide]dihydrate]
